In the NIST ThermoML archive (doi:10.1016/j.jct.2018.10.015):

Test: xn = mol fraction of the nth substance listed
Conditions: 101.3 kPa, Liquid; for viscosity: Concentric cylinders viscometry; for mass density: Vibrating tube method

CCn1cc[n+](C)c1C.O=S(=O)([N-]S(=O)(=O)C(F)(F)F)C(F)(F)F + COC(=O)OC
Conditions | mass density, 293.15 K [kg/m3] | mass density, 298.15 K [kg/m3] | mass density, 303.15 K [kg/m3] | mass density, 308.15 K [kg/m3] | viscosity, 293.15 K [mPa·s] | viscosity, 298.15 K [mPa·s] | viscosity, 303.15 K [mPa·s] | viscosity, 308.15 K [mPa·s]
x1 = 0.099 | 1189 | 1183 | 1177 | 1171 | 1.706 | 1.581 | 1.469 | 1.368
x1 = 0.1994 | 1269.4 | 1263.8 | 1258.1 | 1252.4 | 3.137 | 2.849 | 2.6 | 2.383
x1 = 0.298 | 1325 | 1319.6 | 1314.2 | 1308.8 | 5.492 | 4.9 | 4.402 | 3.98
x1 = 0.4006 | 1368.1 | 1362.9 | 1357.7 | 1352.5 | 9.266 | 8.114 | 7.169 | 6.384
x1 = 0.5003 | 1400.9 | 1395.7 | 1390.6 | 1385.5 | 14.65 | 12.58 | 10.91 | 9.555
x1 = 0.5738 | 1420.8 | 1415.7 | 1410.6 | 1405.6 | 20.1 | 17.03 | 14.6 | 12.64
x1 = 0.6927 | 1447.3 | 1442.3 | 1437.4 | 1432.4 | 31.98 | 26.57 | 22.36 | 19.05
x1 = 0.8138 | 1469.2 | 1464.3 | 1459.4 | 1454.5 | 49.28 | 40.16 | 33.22 | 27.85
x1 = 0.8951 | 1481.5 | 1476.7 | 1471.8 | 1467 | 64.02 | 51.6 | 42.25 | 35.08
x1 = 1 | 1495.8 | 1491 | 1486.3 | 1481.5 | 89.88 | 71.34 | 57.64 | 47.26
